Where two headings read alike, the source gives them in different places.
Key:
22Rv1 = experiment: Caspase 3/7 activation (apoptosis); assay type: cell-based; parameters: key: “+” (present); “−” (absent); settings: Rb wt, p53 wt
Text: (§1) It was noted that cancer cell lines that were growth inhibited at lower concentrations of Compound 1 more frequently responded to Compound 1 exposure with an apoptotic reaction (FIG. 2). Since PC cell lines were among the cancer cell types displaying a particularly high sensitivity to Compound 1 treatment (FIG. 1), the potentially underlying biological reasons for an apoptotic response were investigated in a set of PC cell lines consisting of DU-145, LNCaP, 22Rv1 and PC3 cells.
(§2) In table 1, “wt”=wild-type; “x”=cells harboring Rb and p53 deficiencies; “+” (present) or “−” (absent) indicate the arrest (i.e. accumulation) of cells in S-phase triggered by Compound 1, which coincided with accumulation of the DNA damage marker phosphorylated gamma H2AX (γH2AX; see FIG. 3A). These events are followed by activation of caspases 3 and 7 as indicators of cell apoptosis as indicated by “+” (present) or “−” (absent). In cancer cells with intact Rb and/or p53 functions (wt=wild-type), Compound 1 induced growth arrest but not a substantial increase of cells in S-phase (=S-phase arrest). Upon release of treatment, such cells are able to proliferate again.

BT-549 = experiment: Caspase 3/7 activation (apoptosis); assay type: cell-based; parameters: key: “+” (present); “−” (absent); settings: Rb x, p53 x
Text: as §1, §2

DU-145 = experiment: Caspase 3/7 activation (apoptosis); assay type: cell-based; parameters: key: “+” (present); “−” (absent); settings: Rb x, p53 x
Text: as §1, §2

Hut-78 = experiment: Caspase 3/7 activation (apoptosis); assay type: cell-based; parameters: key: “+” (present); “−” (absent); settings: Rb x, p53 x
Text: as §1, §2

LNCaP = experiment: Caspase 3/7 activation (apoptosis); assay type: cell-based; parameters: key: “+” (present); “−” (absent); settings: Rb wt, p53 wt
Text: as §1, §2

NCI-H146 = experiment: Caspase 3/7 activation (apoptosis); assay type: cell-based; parameters: key: “+” (present); “−” (absent); settings: Rb x, p53 x
Text: as §1, §2

NCI-H209 = experiment: Caspase 3/7 activation (apoptosis); assay type: cell-based; parameters: key: “+” (present); “−” (absent); settings: Rb x, p53 x
Text: as §1, §2

NCI-H660 = experiment: Caspase 3/7 activation (apoptosis); assay type: cell-based; parameters: key: “+” (present); “−” (absent); settings: Rb x, p53 x
Text: as §1, §2

NCI-H69 = experiment: Caspase 3/7 activation (apoptosis); assay type: cell-based; parameters: key: “+” (present); “−” (absent); settings: Rb x, p53 x
Text: as §1, §2

NCI-H82 = experiment: Caspase 3/7 activation (apoptosis); assay type: cell-based; parameters: key: “+” (present); “−” (absent); settings: Rb x, p53 x
Text: as §1, §2

PC3 = experiment: Caspase 3/7 activation (apoptosis); assay type: cell-based; parameters: key: “+” (present); “−” (absent); settings: Rb wt, p53 x
Text: as §1, §2

SCLC-21H = experiment: Caspase 3/7 activation (apoptosis); assay type: cell-based; parameters: key: “+” (present); “−” (absent); settings: Rb x, p53 x
Text: as §1, §2

Y-79 = experiment: Caspase 3/7 activation (apoptosis); assay type: cell-based; parameters: key: “+” (present); “−” (absent); settings: Rb x, p53 wt
Text: as §1, §2

SNU-5 = SNU-5 gastric cancer CDX mouse model; assay type: in vivo; settings: for Tumor growth inhibition: p <0.001
Experimental: Left panel: Tumor growth curves. Right panel: Body weight development. […] QD: once daily treatment; po: per os.
Left panel: Tumor growth curves. Right panel: Body weight development. […] QW: once weekly treatment. p.o.: per oral.
Compound 1 (3 mg/kg) was administered orally to the gastric cancer CDX model of SNU-5 cells (FIG. 8C), which harbor a loss-of-function of p53 and mutations in the CDKN2A gene loci, the latter controlling the Rb and p53 pathways.
Values larger than 100% indicate tumor regression.

[1] = 5-day daily oral repeated-dose pilot study in cynomolgus monkeys (mesylate salt); assay type: in vivo; settings: for Tmax: all groups
Experimental: The objective of the study was to determine the TK profile of Compound 1 following its daily administration through oral gavage (po) for 5 days to cynomolgus monkeys.
Naïve male and female cynomolgus monkeys (2 animals/sex/group) were orally administered Compound 1 (mesylate salt) at dose levels of 8, 12 or 16 mg/kg/day for 5 consecutive days. The vehicle was 0.5% (w/v) methyl cellulose 400 in sterile water. For TK evaluation blood samples were collected from each animal on Days 1 and 5 at pre-dose, 15 min, 30 min, as well as 1, 2, 4, 6, 8, 12, and 24 hours post-dose.

CC(C)C[C@@H]1NCCN([C@@H](CC(C)C)C(=O)N2CCC3(C[C@@H]2C)OCC(CN2CCCC2)CO3)C1=O (stereo partly drawn) [Compound 1, (S)-3-isobutyl-1-((S)-4-methyl-1-((S)-8-methyl-3-(pyrrolidin-1-ylmethyl)-1,5-dioxa-9-azaspiro[5.5]undecan-9-yl)-1-oxopentan-2-yl)piperazin-2-one]
Caspase 3/7, 8 (22Rv1): − | Caspase 3/7, 8 (BT-549): + | Caspase 3/7, 8 (DU-145): + | Caspase 3/7, 8 (Hut-78): + | Caspase 3/7, 8 (LNCaP): − | Caspase 3/7, 8 (NCI-H146): + | Caspase 3/7, 8 (NCI-H209): + | Caspase 3/7 activation (NCI-H660): + | Caspase 3/7, 8 (NCI-H69): + | Caspase 3/7, 8 (NCI-H82): + | Caspase 3/7, 8 (PC3): − | Caspase 3/7, 8 (SCLC-21H): + | Caspase 3/7, 8 (Y-79): − | anti-tumor efficacy, every other week vs daily (SNU-5; 3 mg/kg oral): comparable anti-tumor efficacies | tumor growth (SNU-5; 30 mg/kg once every seven days for 7 weeks): almost complete inhibition of tumor growth | Tumor growth inhibition (SNU-5; once weekly 15 mg/kg/day, 7 weeks): 62% (<0.001)/ | Tumor growth inhibition (SNU-5; once weekly 30 mg/kg/day, 7 weeks): 91% (<0.001)/ | Tumor growth inhibition (SNU-5; once weekly 60 mg/kg/day as 30 mg/kg BID, 5 weeks): 98% (<0.001)/**5 weeks | Total AUC ([1]; 8 mg/kg/day, Day 1): 85 ng·h/mL | Total AUC ([1]; 8 mg/kg/day, Day 5): 175 ng·h/mL | Total AUC ([1]; 12 mg/kg/day, Day 1): 106 ng·h/mL | Total AUC ([1]; 12 mg/kg/day, Day 5): 329 ng·h/mL | Total AUC ([1]; 16 mg/kg/day, Day 1): 351 ng·h/mL | Total AUC ([1]; 16 mg/kg/day, Day 5): 561 ng·h/mL | Cmax ([1]; both sexes, cynomolgus monkey, serum, po, 8 mg/kg/day, Day 1, read-out: Peak serum levels (Cmax)): 45 ng/mL | Cmax ([1]; both sexes, cynomolgus monkey, serum, po, 8 mg/kg/day, Day 5, read-out: Cmax): 64 ng/mL | Cmax ([1]; both sexes, cynomolgus monkey, serum, po, 12 mg/kg/day, Day 1, read-out: Peak serum levels (Cmax)): 42 ng/mL | Cmax ([1]; both sexes, cynomolgus monkey, serum, po, 12 mg/kg/day, Day 5, read-out: Cmax): 72 ng/mL | Cmax ([1]; both sexes, cynomolgus monkey, serum, po, 16 mg/kg/day, Day 1, read-out: Peak serum levels (Cmax)): 136 ng/mL | Cmax ([1]; both sexes, cynomolgus monkey, serum, po, 16 mg/kg/day, Day 5, read-out: Cmax): 112 ng/mL | Tmax ([1]; both sexes, cynomolgus monkey, serum, po, Day 1): 0.5 to 0.9 h | Tmax ([1]; both sexes, cynomolgus monkey, serum, po, Day 5): 0.5 to 1.75 h | half-life ([1]; both sexes, cynomolgus monkey, serum, po, all groups and time points, read-out: half-life (T1/2)): 5 to 7 h | tolerability ([1]; oral 8, 12, and 16 mg/kg/day for 5 consecutive days, slight body weight loss, changes in hematology, urinalysis, clinical chemistry): tolerated
